{"source": "ChEMBL document CHEMBL1201862", "about": "“PubChem BioAssay data set” (2004)", "key": {"INS1": {"tested_on": "INS1", "experiment": "beta cell apoptosis inhibitors, cytokine rescue, dose response, luminescence, retest (AID 449756);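 also: cell death triggered by IL-1 beta plus TNF-alpha plus IFN-gamma mixture; protective hits raise ATP signal compared with cytokine alone wells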", "type": "functional, cell-based", "details": "Rattus norvegicus"}, "[1]": {"experiment": "NIH-3T3 fibroblast cytotoxicity, dose response, cytotoxicity control, cell-based, fluorescence, Alamar Blue, secondary assay (AID 2327);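 also: NIH-3T3 mouse fibroblasts cultured with fluconazole at 8 µg/mL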", "type": "functional"}, "[2]": {"experiment": "C. albicans growth with fluconazole, confirmation, fluorescence, retest (AID 2467)", "type": "functional, cell-based"}, "Fatty acid synthase [3]": {"molecular_target": "T1, Fatty acid synthase (Homo sapiens, UniProt P49327)", "T1 sequence (P49327 whole entry, the tested form may be a part)": "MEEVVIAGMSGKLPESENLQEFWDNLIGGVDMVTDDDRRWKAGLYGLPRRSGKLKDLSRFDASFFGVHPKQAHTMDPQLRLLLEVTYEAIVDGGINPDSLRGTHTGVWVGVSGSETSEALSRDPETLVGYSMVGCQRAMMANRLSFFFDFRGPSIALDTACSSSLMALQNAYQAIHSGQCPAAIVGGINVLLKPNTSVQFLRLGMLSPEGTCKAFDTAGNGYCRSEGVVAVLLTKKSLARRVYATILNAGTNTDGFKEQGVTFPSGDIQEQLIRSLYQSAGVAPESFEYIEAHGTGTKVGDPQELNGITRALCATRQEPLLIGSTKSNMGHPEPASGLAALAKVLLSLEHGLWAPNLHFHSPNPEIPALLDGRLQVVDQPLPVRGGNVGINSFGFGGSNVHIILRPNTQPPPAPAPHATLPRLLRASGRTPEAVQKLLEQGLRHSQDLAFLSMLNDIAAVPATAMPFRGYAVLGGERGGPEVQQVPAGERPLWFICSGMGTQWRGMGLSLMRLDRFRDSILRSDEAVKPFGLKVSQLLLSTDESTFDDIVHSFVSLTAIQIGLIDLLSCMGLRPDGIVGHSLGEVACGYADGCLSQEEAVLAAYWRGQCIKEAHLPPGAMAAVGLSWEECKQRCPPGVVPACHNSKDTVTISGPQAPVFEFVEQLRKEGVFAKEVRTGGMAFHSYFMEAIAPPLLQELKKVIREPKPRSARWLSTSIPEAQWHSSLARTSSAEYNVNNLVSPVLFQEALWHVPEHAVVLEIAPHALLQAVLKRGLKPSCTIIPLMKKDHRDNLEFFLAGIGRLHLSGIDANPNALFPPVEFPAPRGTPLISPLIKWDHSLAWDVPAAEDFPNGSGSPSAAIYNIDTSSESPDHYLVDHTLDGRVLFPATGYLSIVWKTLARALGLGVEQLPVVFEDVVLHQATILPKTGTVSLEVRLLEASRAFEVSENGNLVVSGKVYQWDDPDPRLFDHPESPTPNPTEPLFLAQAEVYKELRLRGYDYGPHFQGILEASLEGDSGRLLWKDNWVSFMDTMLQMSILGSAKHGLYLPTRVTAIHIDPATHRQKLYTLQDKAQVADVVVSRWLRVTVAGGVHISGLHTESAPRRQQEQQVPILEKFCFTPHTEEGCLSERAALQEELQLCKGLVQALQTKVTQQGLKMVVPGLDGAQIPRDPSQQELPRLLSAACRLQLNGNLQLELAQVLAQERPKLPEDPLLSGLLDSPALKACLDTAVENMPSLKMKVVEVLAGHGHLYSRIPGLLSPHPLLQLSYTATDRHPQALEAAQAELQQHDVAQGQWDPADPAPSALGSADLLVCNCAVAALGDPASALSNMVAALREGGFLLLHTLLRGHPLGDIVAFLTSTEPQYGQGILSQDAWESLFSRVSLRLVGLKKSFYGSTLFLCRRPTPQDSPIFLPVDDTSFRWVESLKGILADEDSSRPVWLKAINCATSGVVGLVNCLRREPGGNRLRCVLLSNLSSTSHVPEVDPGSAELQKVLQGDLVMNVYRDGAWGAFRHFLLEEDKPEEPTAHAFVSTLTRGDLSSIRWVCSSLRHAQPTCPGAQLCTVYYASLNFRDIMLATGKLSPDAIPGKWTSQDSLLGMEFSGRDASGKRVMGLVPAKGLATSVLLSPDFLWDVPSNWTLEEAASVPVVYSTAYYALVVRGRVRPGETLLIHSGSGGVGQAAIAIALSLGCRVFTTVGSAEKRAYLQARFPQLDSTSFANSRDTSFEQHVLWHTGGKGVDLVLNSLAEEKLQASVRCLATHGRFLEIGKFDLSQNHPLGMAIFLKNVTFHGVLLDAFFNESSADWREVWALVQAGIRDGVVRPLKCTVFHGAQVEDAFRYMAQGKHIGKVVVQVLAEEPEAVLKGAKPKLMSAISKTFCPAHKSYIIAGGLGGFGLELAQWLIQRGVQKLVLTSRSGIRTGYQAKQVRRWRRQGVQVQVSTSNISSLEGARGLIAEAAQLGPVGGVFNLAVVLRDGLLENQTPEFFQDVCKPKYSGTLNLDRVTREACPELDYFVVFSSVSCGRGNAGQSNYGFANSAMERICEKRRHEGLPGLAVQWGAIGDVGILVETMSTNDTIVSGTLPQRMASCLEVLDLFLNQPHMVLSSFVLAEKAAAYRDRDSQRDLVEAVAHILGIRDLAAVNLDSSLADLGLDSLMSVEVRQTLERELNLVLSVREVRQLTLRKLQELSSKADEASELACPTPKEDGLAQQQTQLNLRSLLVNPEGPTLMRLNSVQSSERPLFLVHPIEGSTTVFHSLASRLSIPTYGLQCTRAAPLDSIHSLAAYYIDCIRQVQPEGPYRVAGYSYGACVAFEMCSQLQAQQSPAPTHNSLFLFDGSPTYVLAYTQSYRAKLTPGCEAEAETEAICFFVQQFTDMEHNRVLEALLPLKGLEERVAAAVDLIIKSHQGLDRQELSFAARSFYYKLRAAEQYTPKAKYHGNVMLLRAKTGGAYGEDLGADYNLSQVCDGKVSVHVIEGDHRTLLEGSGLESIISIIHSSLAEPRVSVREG", "experiment": "FAS thioesterase domain inhibitors, dose response, biochemical, endpoint fluorescence intensity, uHTS hits (AID 624327);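 also: fluorescence from hydrolysis of an O-methyl fluorescein acyl ester substrate by the enzyme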", "type": "functional"}, "Fatty acid synthase [4]": {"molecular_target": "T1, Fatty acid synthase", "experiment": "FAS thioesterase domain inhibitors, dose response, biochemical, kinetic fluorescence intensity (AID 624326);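 also: rate of fluorescence rise from hydrolysis of a fluorogenic O-methyl fluorescein ester substrate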", "type": "functional"}, "[5]": {"molecular_target": "T2, Zinc finger protein mex-5 (Caenorhabditis elegans, UniProt Q9XUB2)", "T2 sequence (Q9XUB2 whole entry)": "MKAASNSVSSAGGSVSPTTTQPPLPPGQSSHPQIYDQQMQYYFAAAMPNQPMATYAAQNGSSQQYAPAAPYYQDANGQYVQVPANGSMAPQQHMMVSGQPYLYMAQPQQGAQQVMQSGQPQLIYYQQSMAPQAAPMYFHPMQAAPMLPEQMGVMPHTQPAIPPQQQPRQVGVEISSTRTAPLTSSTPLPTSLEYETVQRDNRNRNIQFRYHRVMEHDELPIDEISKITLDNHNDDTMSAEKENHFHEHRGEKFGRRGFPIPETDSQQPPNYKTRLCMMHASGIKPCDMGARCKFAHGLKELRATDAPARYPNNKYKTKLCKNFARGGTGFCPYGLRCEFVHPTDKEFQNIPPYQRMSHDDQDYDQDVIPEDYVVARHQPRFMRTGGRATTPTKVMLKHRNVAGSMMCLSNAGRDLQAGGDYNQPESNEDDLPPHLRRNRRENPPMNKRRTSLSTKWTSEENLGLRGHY", "experiment": "MEX-5/TCR-2 RNA interaction inhibitors, dose response, biochemical, C. elegans, fluorescence polarization (AID 1960)"}, "[6]": {"molecular_target": "T3, Corticotropin-releasing factor receptor 2/Corticotropin-releasing factor-binding protein (Homo sapiens, UniProt P24387+Q13324)", "T3 sequence (Q13324 whole entry)": "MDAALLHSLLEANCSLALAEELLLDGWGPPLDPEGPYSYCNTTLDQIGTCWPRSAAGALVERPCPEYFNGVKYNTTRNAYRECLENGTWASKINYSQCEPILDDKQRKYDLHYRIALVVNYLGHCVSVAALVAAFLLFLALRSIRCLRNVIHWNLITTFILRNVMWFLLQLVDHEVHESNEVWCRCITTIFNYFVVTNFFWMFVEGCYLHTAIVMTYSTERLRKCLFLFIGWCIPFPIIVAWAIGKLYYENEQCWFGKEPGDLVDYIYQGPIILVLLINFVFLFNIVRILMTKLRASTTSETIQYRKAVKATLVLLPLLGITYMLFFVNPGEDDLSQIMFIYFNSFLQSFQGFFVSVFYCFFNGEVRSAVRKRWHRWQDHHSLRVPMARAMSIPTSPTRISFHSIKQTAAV", "T3 sequence (P24387 whole entry)": "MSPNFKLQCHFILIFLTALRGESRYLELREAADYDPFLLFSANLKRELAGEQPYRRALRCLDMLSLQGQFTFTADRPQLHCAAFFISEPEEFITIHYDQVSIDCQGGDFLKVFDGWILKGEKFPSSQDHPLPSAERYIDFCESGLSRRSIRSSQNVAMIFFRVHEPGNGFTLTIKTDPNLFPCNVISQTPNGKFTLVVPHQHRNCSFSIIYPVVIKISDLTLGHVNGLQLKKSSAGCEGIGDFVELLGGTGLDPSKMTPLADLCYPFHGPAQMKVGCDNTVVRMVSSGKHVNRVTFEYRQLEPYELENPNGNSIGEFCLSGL", "experiment": "activators of CRF receptor 2 with binding protein – uHTS hits, confirmation (AID 602473)", "type": "functional", "details": "read-out: EC50_Mean"}, "[7]": {"molecular_target": "T4, RNA-binding protein pos-1 (Caenorhabditis elegans, UniProt G5EF15)", "T4 sequence (G5EF15 whole entry)": "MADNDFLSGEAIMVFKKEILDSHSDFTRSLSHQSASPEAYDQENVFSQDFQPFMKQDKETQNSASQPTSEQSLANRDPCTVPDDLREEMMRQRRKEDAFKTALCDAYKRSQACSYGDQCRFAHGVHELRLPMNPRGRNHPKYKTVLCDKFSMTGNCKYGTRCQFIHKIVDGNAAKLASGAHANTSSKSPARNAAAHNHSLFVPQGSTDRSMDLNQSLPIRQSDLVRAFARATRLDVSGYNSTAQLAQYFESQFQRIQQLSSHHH", "experiment": "inhibitors of POS-1/mex-3 RNA binding, dose response, biochemical, fluorescence polarization (AID 1964);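 also: purified POS-1 fused to maltose binding protein made in E. coli; potency of compounds blocking POS-1 binding to fluorescent RNA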"}, "Leucine aminopeptidase": {"molecular_target": "T5, Leucine aminopeptidase (Plasmodium falciparum 3D7, UniProt Q8IL11)", "T5 sequence (Q8IL11 whole entry)": "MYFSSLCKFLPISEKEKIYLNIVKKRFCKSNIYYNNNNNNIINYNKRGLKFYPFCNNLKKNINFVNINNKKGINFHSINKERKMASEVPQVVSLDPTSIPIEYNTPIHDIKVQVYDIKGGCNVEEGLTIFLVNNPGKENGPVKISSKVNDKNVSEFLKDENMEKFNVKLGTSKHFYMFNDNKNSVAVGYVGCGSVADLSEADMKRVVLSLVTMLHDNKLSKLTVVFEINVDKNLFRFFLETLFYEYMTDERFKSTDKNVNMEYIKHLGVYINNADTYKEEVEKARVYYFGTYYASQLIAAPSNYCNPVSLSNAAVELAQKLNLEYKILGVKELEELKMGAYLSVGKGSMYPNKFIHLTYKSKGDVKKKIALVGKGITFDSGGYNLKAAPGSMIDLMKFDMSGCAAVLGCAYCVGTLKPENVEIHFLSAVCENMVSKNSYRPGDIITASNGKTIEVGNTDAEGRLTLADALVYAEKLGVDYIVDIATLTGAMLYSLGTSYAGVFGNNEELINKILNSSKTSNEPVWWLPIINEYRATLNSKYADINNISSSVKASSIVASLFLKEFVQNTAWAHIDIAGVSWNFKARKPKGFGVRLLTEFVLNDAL", "experiment": "P. falciparum M17LAP inhibitors, primary screen, biochemical, fluorogenic H-Leu-NHMec substrate, 1536-well (AID 1619)", "type": "functional"}, "[8]": {"experiment": "Shn3 3'UTR reporter inhibitors, dose response, cell-based, Clone20 osteoblasts, firefly luciferase, cherry-picked (AID 624132)", "type": "functional"}, "[9]": {"experiment": "control 3'UTR Renilla luciferase suppression, dose response, counter-screen for Shn3 inhibitor project, cell-based, Clone20-Shn3RL, cherry-picked (AID 624133)", "type": "functional"}, "BJ [10]": {"tested_on": "BJ", "experiment": "cytotoxicity toward BJ-TERT-LT-ST fibroblasts, dose response, cell-based, RAS-independent, luminescence (AID 1935);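 also: BJ fibroblasts immortalized with TERT plus LT and ST oncogenes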", "type": "functional", "details": "Homo sapiens"}, "[11]": {"experiment": "cytotoxicity toward DRD oncogenic fibroblasts, dose response, cell-based, non-viral oncogenic, luminescence (AID 1934)", "type": "functional", "details": "Homo sapiens"}, "[12]": {"experiment": "Luminescence Cell-Based Dose Confirmation HTS to Identify Inhibitors of Platelet Dense Granule Release. [Related pubchem assays: 1663 (Primary HTS), 1678 (Summary of Project)]", "type": "functional"}, "[13]": {"molecular_target": "Luciferin 4-monooxygenase (Photinus pyralis, UniProt P08659)", "sequence (P08659 whole entry)": "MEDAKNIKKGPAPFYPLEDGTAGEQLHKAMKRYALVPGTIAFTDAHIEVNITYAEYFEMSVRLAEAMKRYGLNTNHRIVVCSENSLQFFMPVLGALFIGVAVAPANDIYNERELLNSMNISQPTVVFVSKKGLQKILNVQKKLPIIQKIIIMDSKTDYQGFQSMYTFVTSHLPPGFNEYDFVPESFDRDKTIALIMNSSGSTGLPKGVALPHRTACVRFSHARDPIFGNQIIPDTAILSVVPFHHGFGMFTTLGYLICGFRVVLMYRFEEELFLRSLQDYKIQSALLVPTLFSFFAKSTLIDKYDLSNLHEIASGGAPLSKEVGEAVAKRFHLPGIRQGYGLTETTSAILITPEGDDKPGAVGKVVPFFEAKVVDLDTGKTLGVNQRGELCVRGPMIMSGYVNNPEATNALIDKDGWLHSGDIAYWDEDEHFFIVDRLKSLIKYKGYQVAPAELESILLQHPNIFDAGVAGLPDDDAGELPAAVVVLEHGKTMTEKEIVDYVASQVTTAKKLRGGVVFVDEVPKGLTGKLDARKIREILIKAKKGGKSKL", "experiment": "firefly luciferase enzyme inhibitors, dose response, biochemical, luminescence (AID 1891)"}, "BJ [14]": {"tested_on": "BJ", "experiment": "cytotoxicity toward BJ-TERT fibroblasts, dose response, cell-based, RAS-independent, luminescence (AID 1933)", "type": "functional", "details": "Homo sapiens"}, "[15]": {"molecular_target": "FAD-linked sulfhydryl oxidase ALR (Homo sapiens, UniProt P55789)", "sequence (P55789 whole entry)": "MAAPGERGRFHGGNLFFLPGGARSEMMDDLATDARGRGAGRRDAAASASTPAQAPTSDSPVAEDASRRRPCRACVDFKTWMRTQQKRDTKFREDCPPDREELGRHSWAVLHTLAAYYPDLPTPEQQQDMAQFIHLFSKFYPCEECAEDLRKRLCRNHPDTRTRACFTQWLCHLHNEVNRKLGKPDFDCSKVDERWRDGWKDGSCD", "experiment": "inhibitors of human ALR sulfhydryl oxidase, dose response, biochemical, H2O2 detection, luminescence, cherry-pick (AID 493248)"}}, "note": "Activity calls are given as the source filed them."}
{"smiles": "C=CCN1C(=O)N/C(=C/c2ccc(N3CCOCC3)o2)C1=O", "values": [{"measurement": "AC50", "setting": "INS1", "value": "> 260 µM (inactive)"}, {"measurement": "EC50", "setting": "[1]", "value": "20 µM (active)"}, {"measurement": "EC50", "setting": "[2]", "value": "2.15 µM (active)"}]}
{"smiles": "CN1CCc2nc(SCc3ccccc3Br)c(C#N)cc2C1", "values": [{"measurement": "IC50", "setting": "Fatty acid synthase [3]", "value": "7.9 µM (active)"}, {"measurement": "IC50", "setting": "Fatty acid synthase [4]", "value": "6.01 µM (active)"}]}
{"smiles": "CN=C(S)N1N=C(c2ccccc2)CC1c1ccccc1Cl", "note": "(configuration not stated)", "values": [{"measurement": "EC50", "setting": "[1]", "value": "> 160 µM (inactive)"}, {"measurement": "EC50", "setting": "[2]", "value": "> 38 µM (not active)"}]}
{"smiles": "Cc1cccc(C2CC3(CC(C)(C)N=C(S)N3)Oc3cc(O)ccc32)c1", "note": "(configuration not stated)", "values": [{"measurement": "EC50", "setting": "[1]", "value": "> 150 µM (inactive)"}, {"measurement": "EC50", "setting": "[2]", "value": "2.44 µM (active)"}]}
{"smiles": "O=C1NC(=O)N(c2ccc(F)cc2)C(=O)/C1=C/c1c[nH]c2ccccc12", "values": [{"measurement": "EC50", "setting": "[5]", "value": "> 300 µM (inconclusive)"}, {"measurement": "EC50", "setting": "[6]", "value": "10.3 µM (active)"}]}
{"smiles": "Cc1cccc(N2CCN(C(=O)COc3ccc4ccc(=O)oc4c3)CC2)c1C", "values": [{"measurement": "IC50", "setting": "Fatty acid synthase [3]", "value": "3.84 µM (active)"}, {"measurement": "IC50", "setting": "Fatty acid synthase [4]", "value": "5.23 µM (active)"}]}
{"smiles": "CC1=NN(C(N)=S)C(=O)C1N=Nc1ccc(S(N)(=O)=O)cc1", "note": "(configuration not stated)", "values": [{"measurement": "EC50", "setting": "[5]", "value": "8.86 µM (active)"}, {"measurement": "EC50", "setting": "[7]", "value": "19.7 µM (active)"}]}
{"smiles": "COc1ccc(NC(=O)CSc2c(C)nn(-c3nnc(C)c(=O)[nH]3)c2C)cc1", "values": [{"measurement": "IC50", "setting": "Leucine aminopeptidase", "value": "83.7 µM (active)"}]}
{"smiles": "O=C(c1cc2cc([N+](=O)[O-])ccc2oc1=O)N1CCN(C2CCCCC2)CC1", "values": [{"measurement": "IC50", "setting": "Fatty acid synthase [3]", "value": "13.9 µM (active)"}, {"measurement": "IC50", "setting": "Fatty acid synthase [4]", "value": "9.68 µM (active)"}]}
{"smiles": "COc1ccc(/C=C(\\NC(=O)c2ccc([N+](=O)[O-])cc2)C(=O)N2CCOCC2)cc1", "values": [{"measurement": "IC50", "setting": "Fatty acid synthase [3]", "value": "1.34 µM (active)"}, {"measurement": "IC50", "setting": "Fatty acid synthase [4]", "value": "0.848 µM (active)"}]}
{"smiles": "COc1ccc(OC)c(C(c2nnnn2Cc2ccccc2)N2CCN(C3CCCCC3)CC2)c1", "note": "(configuration not stated)", "values": [{"measurement": "AC50", "setting": "[8]", "value": "> 70 µM (inactive)"}, {"measurement": "AC50", "setting": "[9]", "value": "30.4 µM (active)"}]}
{"smiles": "CCOC(=O)c1cccc(NC(=O)CSc2nc(N)cc(N)n2)c1", "values": [{"measurement": "IC50", "setting": "Leucine aminopeptidase", "value": "13.8 µM (active)"}]}
{"smiles": "Cc1ccc(N2C(=O)c3ccccc3C2O)nc1", "note": "(configuration not stated)", "values": [{"measurement": "EC50", "setting": "BJ [10]", "value": "> 75 µM (inconclusive)"}, {"measurement": "EC50", "setting": "[11]", "value": "7.47 µM (inconclusive)"}, {"measurement": "EC50", "setting": "[12]", "value": "1.74 µM (active)"}, {"measurement": "EC50", "setting": "[13]", "value": "6.56 µM (active)"}, {"measurement": "EC50", "setting": "BJ [14]", "value": "8.32 µM (active)"}]}
{"smiles": "CCN(CC)c1ccc(NC(=O)Cn2cc3c(n2)CCC(C)C3)c(C)c1", "note": "(configuration not stated)", "values": [{"measurement": "IC50", "setting": "Leucine aminopeptidase", "value": "6.41 µM (active)"}, {"measurement": "AC50", "setting": "[15]", "value": "48.8 µM (active)"}]}
{"smiles": "CCc1cc2c(=O)oc(-c3ccccc3F)nc2s1", "values": [{"measurement": "IC50", "setting": "Fatty acid synthase [3]", "value": "2.48 µM (active)"}, {"measurement": "IC50", "setting": "Fatty acid synthase [4]", "value": "1.62 µM (active)"}]}
